Experimental data reported in PMC12992715, “Dual interference with host neuropeptide signaling allows parasitoid wasp to hijack host sugar metabolism” (The EMBO Journal, 2025).
No end group written: not given here.

How the values were obtained:
[1] = test system: PxsNPFR; test: Intracellular Ca2+ mobilisation (Fura-2/AM) in PxsNPFR-expressing HEK293 cells; format: cell-based, Plutella xylostella; settings: 2.5 μM Fura-2/AM, excitation 340/380 nm, 37 °C, result in words
Method: To establish a stable HEK293/PxsNPFR cell line, the pcDNA 3.1^(+)/PxsNPFR plasmid was transfected into the HEK293 cells using Lipofectamine 3000 (Invitrogen). Two days later, 800 μg/ml G418 (Sangon Biotech) was added to the culture medium to select cells that stably expressed the receptor. After three weeks, resistant clones were trypsinised in cloning cylinders and transferred to 12-well plastic plates for expansion.
To measure the intracellular calcium flux, the transfected cells HEK293/PxsNPFR were harvested with PBS solution containing 0.02% EDTA, rinsed twice with PBS, and resuspended in Hanks’ balanced salt solution containing 0.025% BSA. Cells were then loaded with 2.5 μM Fura-2/AM (Dojindo) for 30 min at 37 °C and washed twice in Hanks’ balanced saline solution. These cells were stimulated with the indicated concentrations of synthetic sNPF, and Hanks’ solution was used as a negative control. The calcium flux was measured using excitation at 340 nm and 380 nm on a SpectraMax iD5 Multi-Mode Microplate Reader (Molecular Devices) at 37 °C.

[2] = test system: PxHK mRNA in the midgut; test: Ex vivo midgut incubation with sNPF and signalling inhibitors, PxHK mRNA; format: cell-based, Plutella xylostella; settings: Fig 6F
Method: The in vitro incubations of fat body or midgut were performed as previously described with minor modifications (Cheng et al, [2022]). The fat bodies and midguts from non-parasitised middle 4th instar P. xylostella larvae were collected in 0.5 mL of PBS. The collected tissues were then preincubated in culture dishes containing TNM-FH medium (HyClone) for 30 min. sNPF peptides or inhibitors were administered to isolated fat body and midgut in vitro using a modified method from a previous study (Oh et al, [2019]). 1 mM stock solution of pertussis toxin (PTX, Tocris Bioscience) or U73122 (MedChemExpress) was dissolved in DMSO (Sigma-Aldrich) and kept at −80 °C. 0.1 ng/µl PTX or 10 µM U73122 were then mixed with 20 µM sNPF-contained TNM-FH medium. Preincubated tissues were incubated in these mixtures at 25 °C for 1 h, followed by total RNA isolation and qPCR.

[3] = test system: PxGP, PxHK and PxTPS mRNA; test: qPCR of PxGP, PxHK, PxTPS in larvae injected with synthetic sNPF, venom, CvBV or teratocytes; format: in vivo, Plutella xylostella; settings: 0.5 ng synthetic peptide, larvae whole body, 4L; n = 7-8; words
Text: (§1) To analyse gene expression in different tissues, P. xylostella larvae were dissected under the microscope, followed by the collection of the silk gland, fat body, midgut, haemocytes and central nervous system (CNS, brain and ventral nerve cord). Haemocytes were collected on clean Parafilm membranes with capillaries by bleeding the larvae from a cut proleg. To explore gene expression at different instars of parasitised or non-parasitised larvae, non-parasitised larva was isolated individually using RNA-easy Isolation Reagent (Vazyme). Parasitoid larvae were removed before parasitised hosts were isolated. As for the measurement of other experiments, per larva with different treatments was isolated individually using RNA-easy Isolation Reagent according to the manufacturer’s instructions.
The quality and concentrations of total RNAs were estimated by electrophoresis and NanoDrop 2000 spectrophotometer (Thermo Fisher Scientific). First-strand cDNAs were synthesised using the ReverTra Ace qPCR RT kit (Toyobo) according to the manufacturer’s instructions. Both β-actin (GenBank Acc. No.: AB282645) and β-tubulin (GenBank Acc. No.: EU127912) of P. xylostella were used as internal controls. Primer sequences used for qPCR analysis are shown in Appendix Table S4. qPCR was performed by using THUNDERBIRD® SYBR qPCR Mix (Toyobo) on the CFX Connect real-time system (Bio-Rad). All qPCR assays were performed using four internal replicates and at least three biological replicates under the following conditions: 95 °C for 60 s and 40 cycles of 95 °C for 15 s and 60 °C for 30 s. Relative gene expression levels were calculated using the 2^−ΔΔCt method.
Microinjections were performed under a Stemi 2000C microscope (Zeiss) using glass capillary injection needles and an Eppendorf Femtojet (Eppendorf) with a microcontroller (Narishige). To confirm the function of bovine insulin on hosts, 1 μg bovine insulin (Sigma-Aldrich, I0305000) was injected into the middle 3rd instar P. xylostella larvae. To identify the effect of each parasitic factor on hosts, 0.05 FE CvBV or 0.05 VRE venom was injected into the abdomen of the middle 3rd instar P. xylostella larva (Wang et al, [2018]; Yu et al, [2007]). 1 TE teratocytes’ content was microinjected into the early 4th instar P. xylostella larvae. To confirm the function of each synthetic sNPF peptide, 0.005 ng, 0.05 ng, or 0.5 ng of each peptide was injected into the middle 3rd instar P. xylostella larvae in a volume of 0.1 μl/per larva once per day for 3 consecutive days.

[4] = test system: PxsNPFR; test: qPCR of PxHK / PxGP upon synthetic sNPF with dsPxsNPFR treatment; format: in vivo, Plutella xylostella; settings: non-parasitised larvae, 3L, 0.5 ng sPxsNPF-1 + dsPxsNPFR; n = 6-7; words
Text: as §1
The quality and concentrations of total RNAs were estimated by electrophoresis and NanoDrop 2000 spectrophotometer (Thermo Fisher Scientific). […] Relative gene expression levels were calculated using the 2^−ΔΔCt method. […]
DNA fragments of ∼500 bp in size were amplified by PCR. […] Synthetic dsRNA was confirmed by an agarose gel, and the concentration was determined by NanoDrop2000 spectrophotometer (Thermo Scientific). About 500 ng of dsRNA was injected into P. xylostella larvae 72 h post-parasitisation, and the RNAi efficiency was detected 48 h post-injection by qPCR. […]

For “SVRSPSRRLRF-NH2 [sPxsNPF-1, synthetic short neuropeptide F-1 of Plutella xylostella]”, the “intracellular Ca2+ mobilisation” value [1] was “elicited a rapid and transient increase in intracellular Ca^2+ mobilisation”, the PxHK relative expression ([2]; sPxsNPF-1+PTX, Average of 5 replicates, SD 0.30, control DMSO average 1.00) was 1.96 and the PxHK relative expression ([2]; sPxsNPF-1+PTX, replicate 1) was 2.33. The PxHK relative expression ([2]; sPxsNPF-1+PTX, replicate 2) was 1.83, the PxHK relative expression ([2]; sPxsNPF-1+PTX, replicate 3) was 1.61 and the PxHK relative expression ([2]; sPxsNPF-1+PTX, replicate 4) was 1.83. The PxHK relative expression ([2]; sPxsNPF-1+PTX, replicate 5) was 2.18, the PxHK relative expression ([2]; sPxsNPF-1+U73122, Average of 5 replicates, SD 0.13, control DMSO average 1.00) was 0.98 and the PxHK relative expression ([2]; sPxsNPF-1+U73122, replicate 1) was 1.03. For the same substance, the PxHK relative expression ([2]; sPxsNPF-1+U73122, replicate 2) was 0.92, the PxHK relative expression ([2]; sPxsNPF-1+U73122, replicate 3) was 1.06 and the PxHK relative expression ([2]; sPxsNPF-1+U73122, replicate 4) was 0.79. The PxHK relative expression ([2]; sPxsNPF-1+U73122, replicate 5) was 1.11, the PxHK relative expression ([2]; sPxsNPF-1 without inhibitor, Average of 5 replicates, SD 0.18, control DMSO average 1.00) was 1.73 and the PxHK relative expression ([2]; sPxsNPF-1 without inhibitor, replicate 1) was 1.68. For the same substance, the PxHK relative expression ([2]; sPxsNPF-1 without inhibitor, replicate 2) was 1.93, the PxHK relative expression ([2]; sPxsNPF-1 without inhibitor, replicate 3) was 1.52 and the PxHK relative expression ([2]; sPxsNPF-1 without inhibitor, replicate 4) was 1.60. For the same substance, the PxHK relative expression ([2]; sPxsNPF-1 without inhibitor, replicate 5) was 1.89, the “PxGP mRNA expression” value [3] was “remained unaffected” and the “PxHK mRNA expression” value [3] was “upregulated”. For the same substance, the “PxTPS mRNA expression” value [3] was “remained unaffected” and the “sNPF-induced PxHK expression after PxsNPFR knockdown” value [4] was “abolished following dsPxsNPFR treatment”.
